Results as given in patent publication EP4603105A1, “PHARMACEUTICAL COMPOSITION CONTAINING CYCLIC COMPOUND HAVING SELECTIVE KRAS INHIBITORY EFFECT AGAINST HRAS AND NRAS” (CHUGAI SEIYAKU KABUSHIKI KAISHA, priority 2022, dated 2024).
pIC50, pKd: −log10 of the molar value.

Columns and labels:
[1] = system: human lung cancer strain NCI-H441; format: cell-based
Method in brief: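 Readout: […] after the ATP-based reagent. Compound: serial dilutions in dimethyl sulfoxide.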

[2] = target: GDP-bound KRAS wild-type protein (Homo sapiens, UniProt P01116); experiment: Binding to KRAS by surface plasmon resonance (SPR), dissociation constant KD; conditions: 1:1 binding model
Method in brief: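 Each cycle, GDP-bound biotin-Avi RAS was captured (~100–300 RU), compound concentrations were injected low to high for 75 s each at 100 µL/min, then the chip was regenerated. Buffer: HBS pH 7.4, 10 mM MgCl2, 10 µM GDP, 1 mM DTT, 4% DMSO; 30°C. KD from a 1:1 binding model.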

[3] = target: GDP-bound NRAS wild-type protein (Homo sapiens, UniProt P01111); experiment: Binding to NRAS by surface plasmon resonance (SPR), KD and KD ratio to KRAS; conditions: ratio of KD for GDP-bound NRAS wild-type protein to KD for KRAS
Method in brief: (§1)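 GDP-bound biotin-Avi RAS captured at ~100–300 RU, 30°C, pH 7.4 HBS containing 10 µM GDP, 10 mM MgCl2, 1 mM DTT, 0.01% Tween 20 and 4% DMSO. KD by 1:1 fitting.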

HRAS wild-type protein = HRAS wild-type protein (Homo sapiens, UniProt P01112); experiment: Binding to HRAS by surface plasmon resonance (SPR), KD and KD ratio to KRAS; conditions: ratio of KD for HRAS wild-type protein to KD for KRAS
Method in brief: as §1

Sequence of GDP-bound KRAS wild-type protein (P01116 1-188 isoform P01116-2): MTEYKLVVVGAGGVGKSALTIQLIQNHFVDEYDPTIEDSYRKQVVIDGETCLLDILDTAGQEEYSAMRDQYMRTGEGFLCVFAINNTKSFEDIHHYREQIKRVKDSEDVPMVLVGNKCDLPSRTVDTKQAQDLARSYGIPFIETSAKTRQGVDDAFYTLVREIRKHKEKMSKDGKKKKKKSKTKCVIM
Sequence of GDP-bound NRAS wild-type protein (P01111 whole entry): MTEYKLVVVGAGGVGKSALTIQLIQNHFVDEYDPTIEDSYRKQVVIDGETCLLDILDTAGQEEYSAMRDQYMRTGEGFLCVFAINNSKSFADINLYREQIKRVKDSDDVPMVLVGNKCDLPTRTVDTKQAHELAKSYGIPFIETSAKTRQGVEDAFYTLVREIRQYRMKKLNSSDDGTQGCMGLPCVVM
Sequence of HRAS wild-type protein (P01112 whole entry): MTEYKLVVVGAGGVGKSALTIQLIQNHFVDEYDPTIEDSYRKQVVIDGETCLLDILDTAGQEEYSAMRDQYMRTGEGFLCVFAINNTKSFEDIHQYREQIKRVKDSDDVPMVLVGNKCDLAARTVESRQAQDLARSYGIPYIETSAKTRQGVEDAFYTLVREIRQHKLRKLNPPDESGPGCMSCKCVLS

SMILES | pIC50 [1] | pKd [2] | NRAS /KRAS [3] | HRAS /KRAS (HRAS wild-type protein)
CCC[C@H]1C(=O)N[C@@H]([C@@H](C)CC)C(=O)N(C)CC(=O)N(C)[C@H]2C/C=C\CCN(C2=O)[C@@H](Cc2ccc(C(F)(F)F)cc2)C(=O)N(C)CC(=O)N[C@@H](CCc2ccc(C(F)(F)F)c(Cl)c2)C(=O)N2CC3(CC3)C[C@H]2C(=O)NC2(CC(C)(C)C2)C(=O)N(C)[C@@H](CC(F)(F)F)C(=O)N(C)[C@H](C(=O)N(C)C)CC(=O)N1C [PP2985] | 7.33 | 8.85 | AA (a compound having 20 or more is denoted as AA) | A (a compound having 10 or more and less than 20 is denoted as A)
CCC[C@H]1C(=O)N[C@@H](C2CCCC2)C(=O)N(C)CC(=O)N(C)[C@H]2C/C=C\CCN(C2=O)[C@@H](Cc2ccc(C)cc2)C(=O)N(C)CC(=O)N[C@@H](CCc2cc(F)c(C(F)(F)F)c(F)c2)C(=O)N2C[C@H](OCC)C[C@H]2C(=O)NC2(CC(C)(C)C2)C(=O)N(C)[C@@H](C2CCCC2)C(=O)N(C)[C@H](C(=O)N(C)C)CC(=O)N1C [PP2988] | 8.09 | 9.54 | B (a compound having 3 or more and less than 10 is denoted as B) | B (a compound having 3 or more and less than 10 is denoted as B)
CCC[C@H]1C(=O)N[C@@H](C2CCCC2)C(=O)N(C)CC(=O)N(C)[C@H]2C/C=C\CCN(C2=O)[C@@H](Cc2ccc(C)cc2)C(=O)N(C)CC(=O)N[C@@H](CCc2ccc(C(F)(F)F)c(OC)c2)C(=O)N2CC3(CC3)C[C@H]2C(=O)NC2(CC(C)(C)C2)C(=O)N(C)[C@@H](C2CCCC2)C(=O)N(C)[C@H](C(=O)N(C)C)CC(=O)N1C [PP2994] | 7.80 | 9.68 | AA (a compound having 20 or more is denoted as AA) | A (a compound having 10 or more and less than 20 is denoted as A)
CCC[C@H]1C(=O)N[C@@H]([C@@H](C)CC)C(=O)N(C)CC(=O)N(C)[C@H]2C/C=C\CCN(C2=O)[C@@H](Cc2ccc(C)cc2)C(=O)N(C)CC(=O)N[C@@H](CCc2cc(F)c(C(F)(F)F)c(F)c2)C(=O)N2C[C@H](OCC)C[C@H]2C(=O)NC2(CC(C)(C)C2)C(=O)N(C)[C@@H](CC(C)C)C(=O)N(C)[C@H](C(=O)N(C)C)CC(=O)N1C [PP2995] | 7.89 | 9.49 | A (a compound having 10 or more and less than 20 is denoted as A) | A (a compound having 10 or more and less than 20 is denoted as A)
CCC[C@H]1C(=O)N[C@@H](C2CCCCC2)C(=O)N(C)CC(=O)N(C)[C@H]2C/C=C\CCN(C2=O)[C@@H](Cc2ccc(C)cc2)C(=O)N(C)CC(=O)N[C@@H](CCc2ccc(C(F)(F)F)c(Cl)c2)C(=O)N2C[C@H](OCC)C[C@H]2C(=O)NC2(CC(C)(C)C2)C(=O)N(C)[C@@H](C2CCCC2)C(=O)N(C)[C@H](C(=O)N(C)C)CC(=O)N1C [PP2998] | 8.08 | 9.37 | A (a compound having 10 or more and less than 20 is denoted as A) | AA (a compound having 20 or more is denoted as AA)
CCC[C@H]1C(=O)N[C@@H](C2CCOCC2)C(=O)N(C)CC(=O)N(C)[C@H]2C/C=C\CCN(C2=O)[C@@H](Cc2ccc(C)cc2)C(=O)N(C)CC(=O)N[C@@H](CCc2ccc(C(F)(F)F)c(Cl)c2)C(=O)N2C[C@H](OCC)C[C@H]2C(=O)NC2(CC(C)(C)C2)C(=O)N(C)[C@@H](C2CCCC2)C(=O)N(C)[C@H](C(=O)N(C)C)CC(=O)N1C [PP3002] | 6.89 | 8.68 | A (a compound having 10 or more and less than 20 is denoted as A) | A (a compound having 10 or more and less than 20 is denoted as A)
CCC[C@H]1C(=O)N[C@@H](C2CCCC2)C(=O)N(C)CC(=O)N(C)[C@H]2C/C=C\CCN(C2=O)[C@@H](Cc2ccc(C)cc2)C(=O)N(C)CC(=O)N[C@@H](CCc2ccc(C(F)(F)F)c(OC)c2)C(=O)N2C[C@H](OCC)C[C@H]2C(=O)NC2(CC(C)(C)C2)C(=O)N(C)[C@@H](CC(C)(C)C)C(=O)N(C)[C@H](C(=O)N(C)C)CC(=O)N1C [PP3005] | 8.06 | 9.82 | A (a compound having 10 or more and less than 20 is denoted as A) | B (a compound having 3 or more and less than 10 is denoted as B)
CCC[C@H]1C(=O)N[C@@H]([C@@H](C)CC)C(=O)N(C)CC(=O)N(C)[C@H]2C/C=C\CCN(C2=O)[C@@H](Cc2ccc(C)cc2)C(=O)N(C)CC(=O)N[C@@H](CCc2ccc(C(F)(F)F)c(OC)c2)C(=O)N2C[C@H](OCC)C[C@H]2C(=O)NC2(CC(C)(C)C2)C(=O)N(C)[C@@H](CC(F)(F)F)C(=O)N(C)[C@H](C(=O)N(C)C)CC(=O)N1C [PP3007] | 7.20 | 8.89 | A (a compound having 10 or more and less than 20 is denoted as A) | A (a compound having 10 or more and less than 20 is denoted as A)
CCC[C@H]1C(=O)N[C@@H]([C@@H](C)CC)C(=O)N(C)CC(=O)N(C)[C@H]2C/C=C\CCN(C2=O)[C@@H](Cc2ccc(C)cc2)C(=O)N(C)CC(=O)N[C@@H](CCc2ccc(C(F)(F)F)c(OC)c2)C(=O)N2C[C@H](OCC)C[C@H]2C(=O)NC2(CC(C)(C)C2)C(=O)N(C)[C@@H](CC(C)C)C(=O)N(C)[C@H](C(=O)N(C)C)CC(=O)N1C [PP3008] | 7.80 | 9.42 | A (a compound having 10 or more and less than 20 is denoted as A) | A (a compound having 10 or more and less than 20 is denoted as A)
CCC[C@H]1C(=O)N[C@@H]([C@@H](C)CC)C(=O)N(C)CC(=O)N(C)[C@H]2C/C=C\CCN(C2=O)[C@@H](Cc2ccc(C)cc2)C(=O)N(C)CC(=O)N[C@@H](CCc2ccc(C(F)(F)F)c(OC)c2)C(=O)N2CC3(CC3)C[C@H]2C(=O)NC2(CC(C)(C)C2)C(=O)N(C)[C@@H](CC(C)(C)C)C(=O)N(C)[C@H](C(=O)N(C)C)CC(=O)N1C [PP3009] | 8.11 | 10.14 | A (a compound having 10 or more and less than 20 is denoted as A) | A (a compound having 10 or more and less than 20 is denoted as A)
CCC[C@H]1C(=O)N[C@@H](C2CCCC2)C(=O)N(C)CC(=O)N(C)[C@H]2C/C=C\CCN(C2=O)[C@@H](Cc2ccc(C)cc2)C(=O)N(C)CC(=O)N[C@@H](CCc2ccc(C(F)(F)F)c(OC)c2)C(=O)N2CC3(CC3)C[C@H]2C(=O)NC2(CC(C)(C)C2)C(=O)N(C)[C@@H](CC(C)(C)C)C(=O)N(C)[C@H](C(=O)N(C)C)CC(=O)N1C [PP3010] | 7.74 | 9.39 | B (a compound having 3 or more and less than 10 is denoted as B) | B (a compound having 3 or more and less than 10 is denoted as B)
CCC[C@H]1C(=O)N[C@@H]([C@@H](C)CC)C(=O)N(C)CC(=O)N(C)[C@H]2C/C=C\CCN(C2=O)[C@@H](Cc2ccc(C)cc2)C(=O)N(C)CC(=O)N[C@@H](CCc2ccc(C(F)(F)F)c(OC)c2)C(=O)N2CC3(CC3)C[C@H]2C(=O)NC2(CC(C)(C)C2)C(=O)N(C)[C@@H]([C@@H](C)CC)C(=O)N(C)[C@H](C(=O)N(C)C)CC(=O)N1C [PP3011] | 7.51 | 9.24 | A (a compound having 10 or more and less than 20 is denoted as A) | B (a compound having 3 or more and less than 10 is denoted as B)
CCC[C@H]1C(=O)N[C@@H]([C@@H](C)CC)C(=O)N(C)CC(=O)N(C)[C@H]2C/C=C\CCN(C2=O)[C@@H](Cc2ccc(C)cc2)C(=O)N(C)CC(=O)N[C@@H](CCc2ccc(C(F)(F)F)c(OC)c2)C(=O)N2CC3(CC3)C[C@H]2C(=O)NC2(CC(C)(C)C2)C(=O)N(C)[C@@H](CC(C)C)C(=O)N(C)[C@H](C(=O)N(C)C)CC(=O)N1C [PP3013] | 7.53 | 9.28 | AA (a compound having 20 or more is denoted as AA) | B (a compound having 3 or more and less than 10 is denoted as B)
CCC[C@H]1C(=O)N[C@@H](C2CCCCC2)C(=O)N(C)CC(=O)N(C)[C@H]2C/C=C\CCN(C2=O)[C@@H](Cc2ccc(C)cc2)C(=O)N(C)CC(=O)N[C@@H](CCc2ccc(C(F)(F)F)c(Cl)c2)C(=O)N2C[C@H](OCC)C[C@H]2C(=O)NC2(CC(C)(C)C2)C(=O)N(C)[C@@H](CC(C)(C)C)C(=O)N(C)[C@H](C(=O)N(C)C)CC(=O)N1C [PP3018] | 7.72 | 9.49 | A (a compound having 10 or more and less than 20 is denoted as A) | B (a compound having 3 or more and less than 10 is denoted as B)
CCC[C@H]1C(=O)N[C@@H](C2CCCCC2)C(=O)N(C)CC(=O)N(C)[C@H]2C/C=C\CCN(C2=O)[C@@H](Cc2ccc(C)cc2)C(=O)N(C)CC(=O)N[C@@H](CCc2ccc(C(F)(F)F)c(Cl)c2)C(=O)N2C[C@H](OCC)C[C@H]2C(=O)NC2(CC(C)(C)C2)C(=O)N(C)[C@@H](CC(C)C)C(=O)N(C)[C@H](C(=O)N(C)C)CC(=O)N1C [PP3021] | 7.12 | 8.96 | AA (a compound having 20 or more is denoted as AA) | A (a compound having 10 or more and less than 20 is denoted as A)
CCC[C@H]1C(=O)N[C@@H](C2CCOCC2)C(=O)N(C)CC(=O)N(C)[C@H]2C/C=C\CCN(C2=O)[C@@H](Cc2ccc(C)cc2)C(=O)N(C)CC(=O)N[C@@H](CCc2ccc(C(F)(F)F)c(Cl)c2)C(=O)N2C[C@H](OCC)C[C@H]2C(=O)NC2(CC(C)(C)C2)C(=O)N(C)[C@@H](CC(C)(C)C)C(=O)N(C)[C@H](C(=O)N(C)C)CC(=O)N1C [PP3026] | 7.27 | 9.18 | A (a compound having 10 or more and less than 20 is denoted as A) | A (a compound having 10 or more and less than 20 is denoted as A)
